Assay results as given in ChEMBL document CHEMBL1156829 (Proc Natl Acad Sci U S A, 2008).

Legend:
[1] = NOVARTIS: Cytotoxicity against human hepatocellular carcinoma cell line (Huh7); type: toxicity, cell-based, Huh-7; settings: Huh7 cells (hepatocellular carcinoma cell line)
[2] = tested on: Plasmodium falciparum; assay: NOVARTIS: Inhibition of Plasmodium falciparum W2 (drug-resistant) proliferation in erythrocyte-based infection assay; type: functional, organism-based; settings: Plasmodium falciparum, W2; read-out: EC50
[3] = tested on: Plasmodium falciparum; assay: NOVARTIS: Inhibition of Plasmodium falciparum 3D7 (drug-susceptible) proliferation in erythrocyte-based infection assay; type: functional, organism-based; settings: Plasmodium falciparum, 3D7

Structure (SMILES) | CC50 [1] | EC50 [2] | EC50 [3]
COc1ccc(NC2=CC(=O)CC(c3ccccc3)C2)c(OC)c1 (configuration not stated) | > 100 µM | 7.74 µM | > 12.5 µM
c1ccc2c(c1)c1c(c3ccccc32)CN2CCCC2C1 (configuration not stated) | > 10 µM | 0.221 µM | 0.12 µM
CN(CCCNc1ccnc2cc(Cl)ccc12)C(=O)COc1ccccc1 | > 10 µM | 0.286 µM | 0.0983 µM
COc1ccc(C2CC3=NC(C)=C(C(=O)OC(C)C)C(c4ccccc4Cl)C3=C(O)C2)cc1OC (configuration not stated) | > 100 µM | 0.00411 µM | 0.00621 µM
N#Cc1c(NC(=O)COc2ccc(F)cc2F)sc2c1CCC2 | > 10 µM | > 1.07 µM | > 1.25 µM
Cc1ncc(CCCCN(C)C)c2c1[nH]c1ccccc12 | 18.8 µM | 0.325 µM | 0.472 µM
Oc1cccc(-c2nc(-c3ccccc3)c(-c3ccc4oc5ccc(-c6[nH]c(-c7cccc(O)c7)nc6-c6ccccc6)cc5c4c3)[nH]2)c1 | 20.4 µM | 1.01 µM | 2.35 µM
c1ccc(-c2nc3cc4nc(-c5ccccc5)[nH]c4cc3[nH]2)cc1 | > 100 µM | 1.2 µM | 0.285 µM
CCCOC(=O)C1=C(C)NC2=C(C(=O)CC(c3ccc(OC)c(OC)c3)C2)C1c1ccccc1Cl (configuration not stated) | > 100 µM | 0.0448 µM | 0.0662 µM
CCN(CC)CCNC(=O)C1c2ccccc2C(=O)N(Cc2ccc(F)cc2)C1c1ccc(OC)cc1 (configuration not stated) | 46.4 µM | 2.42 µM | 0.782 µM
COc1cccc(-c2ccc(O)c(CN(C)CC(O)c3ccccc3)c2)n1 (configuration not stated) | > 10 µM | 0.0904 µM | 0.246 µM
Cc1cc(N2CCN(C/C=C/c3ccccc3)CC2)n2c(nc3ccccc32)c1C#N | > 10 µM | 0.395 µM | 0.415 µM
COc1cc(NC(C)CCCN(Cc2ccc(OC)c(OC)c2)C(=O)CCC2CCCC2)c2ncccc2c1 (configuration not stated) | 3.99 µM | 0.333 µM | 0.687 µM
COc1cc(CNc2ccc3nc(N)nc(N)c3c2)cc(OC)c1OC | > 10 µM | > 1.25 µM | > 1.03 µM
CCCCN(CCCC)CCCNc1ncnc2c1[nH]c1ccc(C)cc12 | 7.41 µM | 0.1 µM | 0.148 µM
Cc1cccc(NC(=O)/C(C#N)=C/c2ccc(C)o2)c1 | > 10 µM | > 0.934 µM | > 1.25 µM
Cc1nc(-c2nc3c(s2)CN(C(=O)c2ccncc2)CC3)cs1 | > 10 µM | 0.144 µM | 0.163 µM
CC1(C)CN=C(N2CCN(CC(O)COc3ccc(OCC(O)CN4CCN(C5=NCC(C)(C)S5)CC4)cc3)CC2)S1 (configuration not stated) | > 10 µM | > 1.25 µM | 2.42 µM
COc1ccc(C(=O)/C(C#N)=C/NC2CCN(Cc3ccccc3)CC2)cc1 | > 10 µM | > 1.57 µM | 0.256 µM
COc1ccc(C[n+]2cc(-c3ccc(Cl)cc3)n3ccccc32)cc1 | > 100 µM | 0.524 µM | 0.413 µM
CC(=O)Nc1c(C)cc(Cl)cc1Cl | > 10 µM | 0.661 µM | 1.45 µM
Cc1cccc(N2C(=O)C3C(C2=O)C2(c4ccccc4)C(=O)C3(c3ccccc3)C(c3ccccc3)=C2c2ccccc2)c1 (configuration not stated) | > 100 µM | 0.7 µM | 1.64 µM
CCCCn1c(NN=C2C(=O)Nc3ccccc32)nc2c1c(=O)[nH]c(=O)n2C | > 10 µM | 1.13 µM | 1.59 µM

Structure (SMILES) | CC50 [1] | EC50 [2] | EC50 [3]
COc1ccc(-c2cc(=O)c3c(O)cc(OC4OC(COC5OC(C)C(O)C(O)C5O)C(O)C(O)C4O)cc3o2)cc1 (configuration not stated) | > 100 µM | 4.42 µM | > 12.5 µM
CCCOC(=O)C1=C(C)NC2=C(C(=O)CC(c3ccccc3)C2)C1c1ccc(Cl)cc1Cl (configuration not stated) | > 100 µM | 0.109 µM | 0.484 µM
Cc1ccc(OCCCCCCNCCO)c(C)c1 | 20.4 µM | 0.391 µM | 1.97 µM
c1ccc(C2=Nc3ccccc3C(c3ccccc3)(c3ccccc3)N2)cc1 | 39.4 µM | 0.59 µM | 0.754 µM
Cc1ccc(C)c2[nH]c(=O)c(CN(Cc3ccccc3)C(=S)NCCCN(C)C)cc12 | 19.5 µM | > 4.67 µM | 5.22 µM
COc1ccc2nc(NC(=N)N)nc(C)c2c1 | 57.5 µM | 0.867 µM | 0.712 µM
CCOC(=O)CN(C)Cc1ccc2c(NC(=O)c3ccc(C)s3)c(C(=O)OC)sc2n1 | > 100 µM | 0.354 µM | 0.766 µM
Cc1cc(C)cc(NC(=S)NNc2ccnc3cc(Cl)ccc23)c1 | 67.7 µM | 2.17 µM | 1.24 µM
CC(C)CCN(CCC(C)C)CC(O)Cn1c2ccc(Br)cc2c2cc(Br)ccc21 (configuration not stated) | > 100 µM | 0.309 µM | 1.49 µM
COC(=O)c1sc(-c2ccccc2)cc1NC(=O)c1ccc(S(=O)(=O)N2CCCCCC2)cc1 | > 14.1 µM | > 0.506 µM | > 1.25 µM
O=C(NC(c1ccccc1)c1ccc2cccnc2c1O)c1ccccc1 (configuration not stated) | > 100 µM | 0.376 µM | 0.533 µM
CCOC(=O)c1c(NC(=O)CSc2nnc(CNC(=O)c3cccc(C)c3)n2Cc2ccccc2)sc2c1CCCC2 | > 14 µM | > 1.46 µM | > 1.09 µM
Cc1ccc2cc(C)c(Nc3ccc(Cl)cc3)nc2c1 | 61 µM | 0.57 µM | 0.426 µM
Cc1ccc(C)n1-c1ccc(N(C)C)cc1 | 50.9 µM | 1.33 µM | 2.93 µM
Cc1ccc(-c2nn(CC(=O)Nc3cccc(C)c3)c(=O)c3ccccc23)cc1 | > 10 µM | > 1.25 µM | > 1.09 µM
COc1cc(C(=O)NCCc2cc3ccccc3[nH]2)ccc1OC1CCN(CC(c2ccccc2)c2ccccc2)CC1 | > 10.9 µM | 0.0944 µM | 0.803 µM
Clc1ccc(-c2c[n+](-c3ccccc3)c3n2CCS3)cc1 | > 100 µM | 0.236 µM | 0.308 µM
O=C(c1ccccc1)N1CCc2nc(Cc3ccc(F)cc3Cl)sc2C1 | > 57.4 µM | 2.36 µM | 4.4 µM
COc1ccccc1CNC(=O)CN1C(=O)c2cccnc2Oc2ccccc21 | > 10 µM | 1.35 µM | > 0.586 µM
CN(Cc1cc(-c2ccc(F)cc2)ccc1O)CC(O)c1ccccc1 (configuration not stated) | > 70.9 µM | 0.0142 µM | 0.223 µM
CCCCN(C)Cc1ccc2c(NC(=O)c3ccc(C)s3)c(C(=O)OC)sc2n1 | 1.52 µM | 0.461 µM | 0.542 µM
Cc1nc(-c2cnccc2C(F)(F)F)sc1C(=O)NN | > 100 µM | 1.39 µM | > 11 µM
Cn1cc(C(c2cccs2)c2cn(C)c3ccccc23)c2ccccc21 | 52.3 µM | 0.61 µM | 1.37 µM

Structure (SMILES) | CC50 [1] | EC50 [2] | EC50 [3]
COc1cccc(-c2cc(C(=O)Nc3cc(Cl)ccc3O)on2)c1 | > 100 µM | 0.065 µM | 0.906 µM
CCNC(=O)NCCSc1nc(-c2ccc(OC)cc2)c(-c2ccc(OC)cc2)n1CC | > 10 µM | > 0.812 µM | > 1.66 µM
Cc1ccc2nc(Cl)c3cc(C(=O)NCCN4CCN(C)CC4)sc3c2c1 | 85.9 µM | 11.7 µM | 7.77 µM
CN(Cc1ccccc1)C(=O)CSc1nc(NCc2ccccc2)c2ccccc2n1 | > 100 µM | > 12.5 µM | > 3.03 µM
Cc1cc(-c2ccc(O)c(CN3CCCCCC3)c2)c2ccccc2n1 | 55.9 µM | 0.345 µM | 1.12 µM
COc1ccccc1N1C(=N)S/C(=C\c2ccc(OCc3ccccc3F)cc2)C1=O | > 10 µM | 0.434 µM | 0.741 µM
CCCCCC(=O)N(CCN(C)C)C(CC)c1nc2ccccc2c(=O)n1-c1ccc(F)cc1 (configuration not stated) | > 10 µM | > 0.628 µM | > 1.25 µM
CCOC(=O)c1ccc2c(c1)[n+](CC)c(/C=C/N(C)c1ccccc1)n2CC | 34.4 µM | 0.588 µM | 0.272 µM
Cc1cccc(C)c1NC(=O)N1CCN(C2CCCCC2)CC1 | > 100 µM | > 6.56 µM | > 12.5 µM
O=C(Nc1ccc(C2=NCCN2)cc1)Nc1cccc(C(=O)Nc2ccc(C3=NCCN3)cc2)c1 | > 10 µM | 0.211 µM | 0.108 µM
O=C(Nc1ccc(F)c(Cl)c1)c1c2c(nc3ccccc13)CCN(Cc1ccccc1)C2 | > 100 µM | 0.0967 µM | 0.799 µM
CC(C)CC(NC(=O)/C(=C\c1ccco1)NC(=O)c1ccccc1)C(=O)OCc1ccccc1 (configuration not stated) | > 10 µM | > 0.625 µM | > 1.25 µM
CC1=C(C(=O)OCC(C)C)C(c2ccc(OCc3ccccc3)cc2)C2=C(CC(c3ccccc3)CC2=O)N1 (configuration not stated) | > 100 µM | 0.659 µM | 0.961 µM
C/C(=C\c1ccccc1)CN(C(=O)c1ccc(C(C)(C)C)cc1)C(C)C | > 5.25 µM | 0.535 µM | 0.217 µM
COC(=O)C1=C(C)NC2=C(C(=O)CC(c3ccc(OC)c(OC)c3)C2)C1c1cccc(O)c1 (configuration not stated) | > 100 µM | 0.05 µM | 0.092 µM
C=C(C)CSc1nc(N)c2c3c(sc2n1)CN(CCC)CC3 | > 66.3 µM | 0.383 µM | 0.799 µM
O=[N+]([O-])c1ccc(-n2ncc(-c3nc(-c4ccc(Cl)cc4)no3)c2C(F)(F)F)cc1 | > 10 µM | 0.0267 µM | > 1.21 µM
COC(=O)c1ccc(C2C3=C(O)CC(c4ccc(F)cc4)CC3=Nc3ccccc3N2C(=O)c2ccccc2)cc1 (configuration not stated) | > 100 µM | 0.29 µM | 0.332 µM
Clc1ccc2c(N3CCCC3)ccnc2c1 | 64.5 µM | 0.124 µM | 0.283 µM
COc1cc(C(=O)ON=C(N)Cc2cccc3ccccc23)cc(OC)c1OC | 48.1 µM | 0.171 µM | 0.28 µM
C#CCN1c2ccccc2Sc2cccnc21 | 36.4 µM | 0.321 µM | 0.0504 µM
COc1ccc(C(c2ccc(N(C)C)cc2)c2ccc(N(C)C)cc2)cc1 | > 100 µM | 0.277 µM | 0.353 µM
CC(C)(C)CC(C)(C)Nc1c(-c2ccccc2OC(=O)C2CCCC2)nc2ccccn12 | > 10 µM | 0.0299 µM | 2.1 µM
